From patent publication US7074789B2, “Kinase inhibitors” (Amgen Inc., priority 1999, dated 2006)

What was measured:
Format in all cases: biochemical
Hck-1 = target: T1, Hck-1 (Homo sapiens, UniProt P08631); assay: Kinase inhibition assay (33P transfer), Hck; settings: Table 6, Hck-1 kinase inhibition class
T1 construct: Kinases are expressed as either kinase domains or full length constructs; made in house

Zap-70 = target: T2, Zap-70 (Homo sapiens, UniProt P43403); assay: Kinase inhibition assay (33P transfer), Zap-70; settings: Table 3; read-out: Zap-1
T2 construct: Kinases are expressed as either kinase domains or full length constructs; made in house
T2 sequence (P43403 1-619): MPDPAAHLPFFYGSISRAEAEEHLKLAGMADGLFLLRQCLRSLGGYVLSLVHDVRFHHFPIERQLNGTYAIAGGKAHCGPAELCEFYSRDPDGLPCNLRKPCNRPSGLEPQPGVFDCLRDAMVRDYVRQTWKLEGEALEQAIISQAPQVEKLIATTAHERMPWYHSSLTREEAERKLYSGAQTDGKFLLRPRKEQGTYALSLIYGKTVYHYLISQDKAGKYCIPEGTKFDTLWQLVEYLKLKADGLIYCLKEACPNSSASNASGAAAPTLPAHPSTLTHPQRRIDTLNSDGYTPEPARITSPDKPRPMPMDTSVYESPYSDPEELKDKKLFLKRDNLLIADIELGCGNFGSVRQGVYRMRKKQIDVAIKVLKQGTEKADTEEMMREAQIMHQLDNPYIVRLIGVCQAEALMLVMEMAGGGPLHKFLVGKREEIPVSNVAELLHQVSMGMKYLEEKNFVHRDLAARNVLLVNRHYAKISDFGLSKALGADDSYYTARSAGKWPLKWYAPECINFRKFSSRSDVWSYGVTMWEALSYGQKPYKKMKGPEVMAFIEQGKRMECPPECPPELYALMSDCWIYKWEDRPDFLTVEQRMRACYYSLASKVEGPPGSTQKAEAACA
In short: (§1)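 Each kinase, expressed as a GST- or polyHis-tagged domain or full-length protein, phosphorylated plate-attached poly(Glu,Tyr) 4:1 or poly(Arg,Ser) 3:1 using 33P-ATP. Bound radioactivity was measured by scintillation after a 0.5% phosphoric acid wash.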

Lyn = target: T3, Lyn (Homo sapiens, UniProt P07948); assay: Kinase inhibition assay (33P transfer), Lyn; settings: Table 6, Lyn-1 kinase inhibition class
T3 construct: Kinases are expressed as either kinase domains or full length constructs; made in house
Excerpt: (§2) The inhibitor compounds described herein are screened in the following manner. Kinases suitable for use in the following protocol to determine kinase activity of the compounds described herein include, -but are not limited to: Lck, Lyn, Src, Fyn, Syk, Zap-70, Itk, Tec, Btk, EGFR, ErbB2, Kdr, Flt-1, Flt-3, Tek, c-Met, InsR, and AKT.
(§3) Kinases are expressed as either kinase domains or full length constructs fused to glutathione S-transferase (GST) or polyHistidine tagged fusion proteins in either E. colior Baculovirus-High Five expression systems. They are purified to near homogeneity by affinity chromatography essentially as previously described (Lehr et al., 1996; Gish et al., 1995). In some instances, kinases are co-expressed or mixed with purified or partially purified regulatory polypeptides prior to measurement of activity.
(§4) Kinase activity and inhibition are measured essentially by established protocols (Braunwalder et al., 1996). Briefly, The transfer of ^33PO4 from ATP to the synthetic substrates poly(Glu, Tyr) 4:1 or poly(Arg, Ser) 3:1 attached to the bioactive surface of microtiter plates serves as the basis to evaluate enzyme activity. After an incubation period, the amount of phosphate transferred is measured by first washing the plate with 0.5% phosphoric acid, adding liquid scintillant, and then counting in a liquid scintillation detector. The IC50 is determined by the concentration of compound that causes a 50% reduction in the amount of […] incorporated onto the substrate bound to the plate.

Kdr = target: T4, Kdr (Homo sapiens, UniProt P35968); assay: Kinase inhibition assay (33P transfer), Kdr; settings: Table 3; read-out: KDR-1
T4 construct: Kinases are expressed as either kinase domains or full length constructs; made in house
In short: as §1

c-Met = target: T5, c-Met (Homo sapiens, UniProt P08581); assay: Kinase inhibition assay (33P transfer), c-Met; settings: Table 2, kinase inhibition class; read-out: Met-1
T5 construct: Kinases are expressed as either kinase domains or full length constructs; made in house
In short: (§5)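 Each enzyme, purified to near homogeneity by affinity chromatography, was incubated with ATP carrying 33P and a substrate polymer fixed to the plate. Unbound label was removed with dilute phosphoric acid (0.5%) before adding scintillant and counting. Potency is given as the compound level cutting label uptake by 50%.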

Fyn = target: T6, Fyn (Homo sapiens, UniProt P06241); assay: Kinase inhibition assay (33P transfer), Fyn; settings: read-out: Fyn-1
T6 construct: Kinases are expressed as either kinase domains or full length constructs; made in house
Excerpt: as §2, §3, §4

ErbB4 = target: T7, ErbB4 (Homo sapiens, UniProt Q15303); assay: Kinase inhibition assay (33P transfer), ErbB4; settings: read-out: ErbB4-1
T7 construct: Kinases are expressed as either kinase domains or full length constructs; made in house

Tek = target: T8, Tek (Homo sapiens, UniProt Q02763); assay: Kinase inhibition assay (33P transfer), Tek; settings: read-out: Tek-1
T8 construct: Kinases are expressed as either kinase domains or full length constructs; made in house
In short: as §5

EGFR = target: T9, EGFR (Homo sapiens, UniProt P00533); assay: Kinase inhibition assay (33P transfer), EGFR; settings: Table 2, kinase inhibition class; read-out: EGFR-1
T9 construct: Kinases are expressed as either kinase domains or full length constructs; made in house
In short: as §5

Flt-1 = target: T10, Flt-1 (Homo sapiens, UniProt P17948); assay: Kinase inhibition assay (33P transfer), Flt-1
T10 construct: Kinases are expressed as either kinase domains or full length constructs; made in house
Excerpt: as §2, §3, §4

Itk = target: T11, Itk (Homo sapiens, UniProt Q08881); assay: Kinase inhibition assay (33P transfer), Itk; settings: Table 3; read-out: Itk-1
T11 construct: Kinases are expressed as either kinase domains or full length constructs; made in house
T11 sequence (Q08881 1-620): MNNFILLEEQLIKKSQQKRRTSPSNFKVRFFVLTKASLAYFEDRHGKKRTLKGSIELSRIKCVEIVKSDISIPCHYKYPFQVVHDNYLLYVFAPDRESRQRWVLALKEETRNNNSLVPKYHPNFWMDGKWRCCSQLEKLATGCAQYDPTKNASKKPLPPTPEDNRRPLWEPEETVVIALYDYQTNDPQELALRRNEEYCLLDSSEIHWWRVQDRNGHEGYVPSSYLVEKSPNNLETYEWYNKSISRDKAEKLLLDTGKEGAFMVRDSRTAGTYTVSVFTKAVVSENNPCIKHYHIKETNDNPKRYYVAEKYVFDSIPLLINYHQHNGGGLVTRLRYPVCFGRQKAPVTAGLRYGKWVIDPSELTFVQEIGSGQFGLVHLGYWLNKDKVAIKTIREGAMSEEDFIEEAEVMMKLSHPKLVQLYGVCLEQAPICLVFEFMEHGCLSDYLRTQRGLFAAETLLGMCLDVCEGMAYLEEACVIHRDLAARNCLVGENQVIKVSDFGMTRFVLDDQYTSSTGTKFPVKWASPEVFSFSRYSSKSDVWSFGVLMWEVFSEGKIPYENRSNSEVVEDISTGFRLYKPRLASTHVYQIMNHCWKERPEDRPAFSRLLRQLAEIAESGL
In short: as §5

PDGFRB = target: T12, PDGFRB (Homo sapiens, UniProt P09619); assay: Kinase inhibition assay (33P transfer), PDGFRB; settings: read-out: PDGFRB-1
T12 construct: Kinases are expressed as either kinase domains or full length constructs; made in house

FGFR1 = target: T13, FGFR1 (Homo sapiens, UniProt P11362); assay: Kinase inhibition assay (33P transfer), FGFR1; settings: read-out: FGFR1-1
T13 construct: Kinases are expressed as either kinase domains or full length constructs; made in house

Lck = target: T14, Lck (Homo sapiens, UniProt P06239); assay: Kinase inhibition assay (33P transfer), Lck; settings: Table 3; read-out: Lck-1
T14 construct: Kinases are expressed as either kinase domains or full length constructs; made in house
In short: as §1

AKT = target: T15, AKT (Homo sapiens, UniProt Q9Y243); assay: Kinase inhibition assay (33P transfer), AKT; settings: Table 2, kinase inhibition class; read-out: AKT3-1
T15 construct: Kinases are expressed as either kinase domains or full length constructs; made in house
In short: as §1

Src = target: T16, Src (Homo sapiens, UniProt P12931); assay: Kinase inhibition assay (33P transfer), Src; settings: Table 6, Src-1 kinase inhibition class
T16 construct: Kinases are expressed as either kinase domains or full length constructs; made in house
Excerpt: as §2, §3, §4

T15 sequence (Q9Y243 whole entry, the tested form may be a part): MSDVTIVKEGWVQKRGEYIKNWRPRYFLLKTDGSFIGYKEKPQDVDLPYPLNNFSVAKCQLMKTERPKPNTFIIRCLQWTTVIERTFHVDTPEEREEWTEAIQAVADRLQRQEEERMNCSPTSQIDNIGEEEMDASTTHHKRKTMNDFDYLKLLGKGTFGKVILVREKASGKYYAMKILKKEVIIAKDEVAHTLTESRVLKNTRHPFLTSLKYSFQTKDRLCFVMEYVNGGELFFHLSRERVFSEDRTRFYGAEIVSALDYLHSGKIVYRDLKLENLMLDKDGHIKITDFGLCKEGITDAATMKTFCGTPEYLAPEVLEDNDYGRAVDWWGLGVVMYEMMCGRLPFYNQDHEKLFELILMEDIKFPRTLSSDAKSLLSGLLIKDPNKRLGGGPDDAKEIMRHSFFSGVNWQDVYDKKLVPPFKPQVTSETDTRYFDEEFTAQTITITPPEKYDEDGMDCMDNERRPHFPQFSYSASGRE
T7 sequence (Q15303 26-1308, species assumed): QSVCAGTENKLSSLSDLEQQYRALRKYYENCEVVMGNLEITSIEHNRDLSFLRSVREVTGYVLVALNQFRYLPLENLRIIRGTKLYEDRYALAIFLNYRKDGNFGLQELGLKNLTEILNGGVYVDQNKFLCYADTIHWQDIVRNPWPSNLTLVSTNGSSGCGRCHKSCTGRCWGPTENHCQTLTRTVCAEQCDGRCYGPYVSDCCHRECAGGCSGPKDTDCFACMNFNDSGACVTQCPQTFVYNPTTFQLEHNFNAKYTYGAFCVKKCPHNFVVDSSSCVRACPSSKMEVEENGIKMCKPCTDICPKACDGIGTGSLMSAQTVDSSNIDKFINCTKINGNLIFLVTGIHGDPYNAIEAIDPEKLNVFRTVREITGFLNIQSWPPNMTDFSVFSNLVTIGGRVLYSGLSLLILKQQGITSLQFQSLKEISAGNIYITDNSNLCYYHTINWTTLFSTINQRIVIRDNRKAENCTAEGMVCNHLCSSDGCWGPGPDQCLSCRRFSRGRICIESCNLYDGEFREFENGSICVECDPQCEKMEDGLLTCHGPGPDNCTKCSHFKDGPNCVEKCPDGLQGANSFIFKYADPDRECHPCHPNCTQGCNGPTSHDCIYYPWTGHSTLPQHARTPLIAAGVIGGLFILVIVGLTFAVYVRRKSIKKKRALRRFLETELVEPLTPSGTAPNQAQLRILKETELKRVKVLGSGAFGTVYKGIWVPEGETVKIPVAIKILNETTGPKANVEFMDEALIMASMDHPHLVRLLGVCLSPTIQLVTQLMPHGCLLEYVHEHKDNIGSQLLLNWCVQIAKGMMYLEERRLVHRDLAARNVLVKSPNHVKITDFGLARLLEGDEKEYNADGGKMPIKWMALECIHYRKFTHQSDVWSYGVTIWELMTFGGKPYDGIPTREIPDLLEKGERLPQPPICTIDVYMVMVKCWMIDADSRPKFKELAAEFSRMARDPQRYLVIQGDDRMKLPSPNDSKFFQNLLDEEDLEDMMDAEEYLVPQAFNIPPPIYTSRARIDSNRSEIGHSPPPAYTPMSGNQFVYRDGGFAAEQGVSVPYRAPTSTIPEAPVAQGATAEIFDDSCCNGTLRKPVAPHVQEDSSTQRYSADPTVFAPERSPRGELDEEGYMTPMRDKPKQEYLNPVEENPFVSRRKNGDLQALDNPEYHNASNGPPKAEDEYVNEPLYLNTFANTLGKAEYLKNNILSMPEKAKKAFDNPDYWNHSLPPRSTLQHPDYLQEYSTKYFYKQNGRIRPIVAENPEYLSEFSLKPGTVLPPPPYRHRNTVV
T1 sequence (P08631 whole entry, the tested form may be a part): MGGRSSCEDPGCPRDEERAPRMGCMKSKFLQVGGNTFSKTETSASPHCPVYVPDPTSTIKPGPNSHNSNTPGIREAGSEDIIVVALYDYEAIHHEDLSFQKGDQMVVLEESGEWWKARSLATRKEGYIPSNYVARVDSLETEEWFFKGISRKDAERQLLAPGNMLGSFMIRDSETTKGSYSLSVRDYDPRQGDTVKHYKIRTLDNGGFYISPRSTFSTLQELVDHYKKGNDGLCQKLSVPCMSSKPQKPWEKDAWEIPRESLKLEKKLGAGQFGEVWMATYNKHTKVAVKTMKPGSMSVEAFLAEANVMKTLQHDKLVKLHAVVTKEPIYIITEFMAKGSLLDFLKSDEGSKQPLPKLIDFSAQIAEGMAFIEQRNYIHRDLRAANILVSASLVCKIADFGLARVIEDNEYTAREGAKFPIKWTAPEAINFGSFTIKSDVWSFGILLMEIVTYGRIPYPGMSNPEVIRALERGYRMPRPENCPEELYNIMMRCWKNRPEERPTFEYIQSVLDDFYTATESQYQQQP
T10 sequence (P17948 27-1338, species assumed): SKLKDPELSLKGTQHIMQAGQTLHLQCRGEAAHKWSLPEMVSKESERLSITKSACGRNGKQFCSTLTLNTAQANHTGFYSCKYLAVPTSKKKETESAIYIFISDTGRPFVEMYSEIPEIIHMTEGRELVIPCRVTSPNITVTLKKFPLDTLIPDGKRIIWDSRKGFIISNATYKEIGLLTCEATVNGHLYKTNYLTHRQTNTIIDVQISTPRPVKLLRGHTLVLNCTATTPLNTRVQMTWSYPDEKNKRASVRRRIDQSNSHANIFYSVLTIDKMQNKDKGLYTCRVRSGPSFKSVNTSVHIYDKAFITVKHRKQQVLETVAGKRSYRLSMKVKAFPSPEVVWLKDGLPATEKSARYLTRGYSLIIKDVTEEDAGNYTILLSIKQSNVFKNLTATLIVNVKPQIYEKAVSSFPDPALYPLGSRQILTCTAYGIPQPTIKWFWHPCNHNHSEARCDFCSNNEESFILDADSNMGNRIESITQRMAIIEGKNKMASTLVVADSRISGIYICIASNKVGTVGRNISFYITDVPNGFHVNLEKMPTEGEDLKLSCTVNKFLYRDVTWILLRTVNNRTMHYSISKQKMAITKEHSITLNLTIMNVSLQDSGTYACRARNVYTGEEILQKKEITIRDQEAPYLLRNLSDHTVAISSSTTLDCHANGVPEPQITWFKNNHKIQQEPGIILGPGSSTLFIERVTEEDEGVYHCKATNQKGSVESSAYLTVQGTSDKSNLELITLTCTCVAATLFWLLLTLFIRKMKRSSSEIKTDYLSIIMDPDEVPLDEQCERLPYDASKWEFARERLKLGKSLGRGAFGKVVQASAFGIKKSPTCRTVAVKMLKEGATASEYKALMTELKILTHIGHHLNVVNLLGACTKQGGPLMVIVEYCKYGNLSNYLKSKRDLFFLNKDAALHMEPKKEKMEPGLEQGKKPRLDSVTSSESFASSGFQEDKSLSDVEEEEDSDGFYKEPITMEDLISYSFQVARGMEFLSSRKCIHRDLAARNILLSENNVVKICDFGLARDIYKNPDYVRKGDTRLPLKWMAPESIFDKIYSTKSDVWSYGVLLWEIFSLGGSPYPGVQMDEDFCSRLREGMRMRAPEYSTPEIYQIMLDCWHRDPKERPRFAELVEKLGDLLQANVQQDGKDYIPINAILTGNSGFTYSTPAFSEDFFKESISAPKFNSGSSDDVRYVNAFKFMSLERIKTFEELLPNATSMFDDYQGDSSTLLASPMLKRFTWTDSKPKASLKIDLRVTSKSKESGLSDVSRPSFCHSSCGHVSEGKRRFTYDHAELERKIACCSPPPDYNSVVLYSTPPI
T16 sequence (P12931 whole entry, species assumed, the tested form may be a part): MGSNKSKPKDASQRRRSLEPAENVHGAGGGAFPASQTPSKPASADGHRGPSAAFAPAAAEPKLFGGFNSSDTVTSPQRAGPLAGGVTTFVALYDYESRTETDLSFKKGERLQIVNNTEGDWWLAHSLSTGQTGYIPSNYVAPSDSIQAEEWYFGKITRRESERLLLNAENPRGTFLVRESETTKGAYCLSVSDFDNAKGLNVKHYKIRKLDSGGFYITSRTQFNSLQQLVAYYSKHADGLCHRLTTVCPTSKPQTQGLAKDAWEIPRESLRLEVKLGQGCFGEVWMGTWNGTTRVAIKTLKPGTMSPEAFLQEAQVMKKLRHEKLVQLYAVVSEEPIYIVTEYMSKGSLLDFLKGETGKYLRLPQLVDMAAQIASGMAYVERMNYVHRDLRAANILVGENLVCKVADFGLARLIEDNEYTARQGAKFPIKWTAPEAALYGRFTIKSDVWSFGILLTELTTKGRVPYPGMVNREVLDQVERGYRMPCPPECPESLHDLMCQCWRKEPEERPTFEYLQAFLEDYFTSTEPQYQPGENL
T3 sequence (P07948 whole entry, species assumed, the tested form may be a part): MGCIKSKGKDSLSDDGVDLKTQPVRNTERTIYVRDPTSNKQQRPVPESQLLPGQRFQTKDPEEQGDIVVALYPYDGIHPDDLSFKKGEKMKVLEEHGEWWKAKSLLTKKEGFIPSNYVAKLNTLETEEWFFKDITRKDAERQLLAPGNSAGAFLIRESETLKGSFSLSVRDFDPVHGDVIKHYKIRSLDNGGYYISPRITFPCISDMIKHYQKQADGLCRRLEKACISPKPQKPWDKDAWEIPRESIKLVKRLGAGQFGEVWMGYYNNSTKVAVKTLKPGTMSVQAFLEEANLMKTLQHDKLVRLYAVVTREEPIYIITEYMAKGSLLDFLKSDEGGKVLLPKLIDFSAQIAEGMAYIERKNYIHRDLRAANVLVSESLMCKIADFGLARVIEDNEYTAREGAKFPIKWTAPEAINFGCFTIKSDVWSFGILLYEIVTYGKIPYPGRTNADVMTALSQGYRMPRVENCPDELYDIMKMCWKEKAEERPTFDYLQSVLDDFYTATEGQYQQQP

SMILES | IC50 (Hck-1) | IC50 (Zap-70) | IC50 (Lyn) | IC50 (Kdr) | IC50 (c-Met) | IC50 (Fyn) | IC50 (ErbB4) | IC50 (Tek) | IC50 (EGFR) | IC50 (Flt-1) | IC50 (Itk) | IC50 (PDGFRB) | IC50 (FGFR1) | IC50 (Lck) | IC50 (AKT) | IC50 (Src)
CNc1nc2ccccc2n1-c1ncnc(Nc2cc(OC)c(OC)c(OC)c2)n1 [Compound 417] | > 11 µM | > 11 µM | 0.982 to 5.89 µM | < 0.982 µM | > 11 µM | 5.89 to 8.59 µM | > 11 µM | > 11 µM | > 11 µM | 0.982 to 5.89 µM | > 11 µM | < 0.982 µM | < 0.982 µM | < 0.982 µM | > 11 µM | 0.982 to 5.89 µM
COc1cc(Nc2ncnc(N[C@H](CO)c3ccccc3)n2)cc(OC)c1OC [Compound 425] | > 11.3 µM | > 11.3 µM | < 1.01 µM | 8.81 to 11.3 µM | > 11.3 µM | 8.81 to 11.3 µM | > 11.3 µM | > 11.3 µM | 1.01 to 6.04 µM | > 11.3 µM | > 11.3 µM | 1.01 to 6.04 µM | 6.04 to 8.81 µM | > 11.3 µM | > 11.3 µM | 1.01 to 6.04 µM
COc1cc(Nc2ncnc(-n3c(N)nc4ccccc43)n2)cc(OC)c1OCCN1CCOCC1 [Compound 445] | > 9.14 µM | > 9.14 µM | 0.812 to 4.87 µM | < 0.812 µM | 0.812 to 4.87 µM | 0.812 to 4.87 µM | > 9.14 µM | 7.11 to 9.14 µM | > 9.14 µM | < 0.812 µM | 0.812 to 4.87 µM | < 0.812 µM | < 0.812 µM | < 0.812 µM | > 9.14 µM | 0.812 to 4.87 µM
COc1cc(Nc2ncnc(-n3c(NC(C)C)nc4ccccc43)n2)cc(OC)c1OC [Compound 403] | > 10.3 µM | > 10.3 µM | < 0.919 µM | < 0.919 µM | > 10.3 µM | 0.919 to 5.51 µM | > 10.3 µM | > 10.3 µM | > 10.3 µM | 0.919 to 5.51 µM | > 10.3 µM | < 0.919 µM | < 0.919 µM | < 0.919 µM | > 10.3 µM | 0.919 to 5.51 µM
Nc1nc2ccccc2n1-c1ncnc(Nc2cccc(-c3cnco3)c2)n1 [Compound 439] | 1.08 to 6.48 µM | 6.48 to 9.45 µM | 1.08 to 6.48 µM | < 1.08 µM | 1.08 to 6.48 µM | 1.08 to 6.48 µM | 1.08 to 6.48 µM | 1.08 to 6.48 µM | 1.08 to 6.48 µM | < 1.08 µM | 1.08 to 6.48 µM | < 1.08 µM | < 1.08 µM | 1.08 to 6.48 µM | 1.08 to 6.48 µM | 1.08 to 6.48 µM
